Test results as given in patent publication US7244847B2, “Benzimidazole compounds” (Isis Pharmaceuticals, Inc., priority 2002, dated 2007).
≈ marks a conversion by molar mass, not a printed value. Like-named read-outs stand apart in the source and are kept apart here.

Legend:
[1] = tested on: Bacterial Transcription/Translation; experiment: bacterial transcription/translation assay (pBestLuc luciferase, E. coli S30 extract); assay type: biochemical
Description: This series of assays is known to those of skill in the art, and other assays may be substituted therefore without deviating from the spirit and scope hereof. The DNA template, pBestLuc™ (Promega), is a plasmid containing a reporter gene for firefly luciferase fused to a strong tac promoter and ribosome binding site. Messenger RNA from 1 μg pBestLuc is transcribed and translated in E. coli S30 bacterial extract in the presence or absence of test compound. Compounds are tested in a black 96 well microtiter plate with an assay volume of 35 μL. […] The transcription/translation reaction is incubated for 35 minutes at 37° C. followed by detection of functional luciferase with the addition of 30 μL LucLite™ (Packard). Light output is quantitated on a Packard TopCount.

E. coli [2] = experiment: MIC assay of Example 20, E. coli; assay type: cell-based; conditions: Tables 4-7
Description: (§1) The assays are carried out in 150 μL volume in duplicate in 96-well clear flat-bottom bottom plates. The bacterial suspension from an overnight culture growth in appropriate medium is added to a solution of test compound in 4% DMSO in water. Final bacterial inoculum is approximately 10^5-10^6 CFU/well. The percent growth of the bacteria in test wells relative to that observed for a well containing no compound is determined by measuring absorbance at 595 nm (A595) after 24 h. The MIC is determined as a range of single compound where the complete inhibition of growth is observed at the higher concentration and cells are viable at the lower concentrations. Both ampicillin and tetracycline are used as antibiotic-positive controls in each screening assay for S. pyogenes, E. coli, S. aureus, E. faecalis, K. pneumoniae and P. vulgaris; . Ciprofloxacin is used as an antibiotic positive control in each screening assay for P. aeruginosa.

S. aureus [3] = experiment: MIC assay of Example 20, S. aureus; assay type: cell-based; conditions: Tables 4-7
Description: as §1

Ag IIa HCV IRES Target = experiment: MASS screening against Ag IIa HCV IRES target; assay type: binding; conditions: target conc. […], ligand conc. 50 μM; for Selectivity: by mass spectral analysis
Description: A series of 2-aminobenzimidazole dimers were synthesized according to the procedure described in Example 11. A series of 5- and 6-substituted-2-aminobenzimidazoles also were synthesized, and all were evaluated for biological activity. Tables 4-7 report MIC and transcription/translation activity for the dimer compounds By the outlined procedure. Tables 8 and 9 report the MASS screening of 2-aminobenzimidazoles against the AgIIa HCV-IRES target. The reported selectivity was determined by mass spectral analysis of any associations and provides information about the relative binding affinities.

S. aureus [4] = experiment: in vitro antibacterial activity (MIC) against S. aureus; assay type: cell-based; conditions: Staphylococcus aureus; Tables 1 and 2
Description: (§2) Compounds were evaluated for in vitro antibacterial activity (referred to MIC, the minimum concentration inhibiting fungal cell growth) against S. aureus and E. coli. […] The assays are carried out in 150 mL volume in duplicate in 96-well clear flat-bottom plates. […] Final bacterial or yeast inoculum is approximately 10^2-10^3 CFU/well. […] (bacteria) or 40-48 hours (yeast) at 25° C. The MIC is determined as a range of concentration where complete inhibition of growth is observed at the higher concentration and bacterial/yeast cells are viable at the lower concentration. Ampicillin and tetracycline are used as antibiotic positive controls for bacterial MIC assays.
(§3) The assays are carried out in 150 μL volume in duplicate in 96-well clear flat-bottom plates. […] Final bacterial or yeast inoculum is approximately 10^2-10^3 CFU/well. […] (bacteria) or 40-48 hours (yeast) at 25° C. The MIC is determined as a range of concentration where complete inhibition of growth is observed at the higher concentration and bacterial/yeast cells are viable at the lower concentration. Ampicillin and tetracycline are used as antibiotic positive controls for bacterial MIC assays.

E. coli [5] = experiment: in vitro antibacterial activity (MIC) against E. coli; assay type: cell-based; conditions: Escherichia coli; Tables 1 and 2
Description: as §2, §3

E. coli 16S A-site [6] = experiment: MS-based assay of binding affinity for 16S RNA A-site
Excerpt: It has been established that the 16S A-site is involved in bacterial translation, and the aminoglycosides are known to bind to the region. Thus, the bacterial 16S A-site represents a prime target for discovering antibacterial agents, and much work has focused on the modification of the natural aminoglycosides. […] These are shown below in Scheme 17. [drawing 31]
The synthesis of compound 1 and piperidine-modified benzimidazoles are shown above in Scheme 17.
A series of benzimidazole-modified analogs were prepared as shown above. The procedure required the simple heating of a suitable 1,2-dianiline (8) with isonipecotic acid (9) in the presence of polyphosphoric acid.

E. coli 16S A-site [7] = experiment: MS-based competition experiments to determine the binding location; conditions: competition of 1 with glucosamine
Excerpt: MS-based competition experiments were used to determine the binding location of 1 to the target RNA. Glucosamine is the A-ring of paromomycin that is known to bind to the target RNA and inhibits bacterial translation.

[8] = Tables 4-7, read-out: Transcription/Translation, IC50

**Q.** For `CN(CCCn1c(N)nc2ccccc21)CCCn1c(N)nc2ccccc21`, which IC50 [1, 8] is on record?
**A.** 25 µM

**Q.** And the MIC (E. coli [2]; Escherichia coli)?
**A.** 25 to 50 µM (≈ 9.44 to 18.9 µg/mL)

**Q.** And the MIC (S. aureus [3]; Staphylococcus aureus)?
**A.** 75 to 100 µM (≈ 28.3 to 37.7 µg/mL)

**Q.** Which results are given for `CN(CCCn1c(N)nc2cc(Br)ccc21)CCCn1c(N)nc2cc(Br)ccc21`?
**A.** IC50 [1, 8]: > 100 µM; MIC (E. coli [2]; Escherichia coli): 25 to 50 µM (≈ 13.4 to 26.8 µg/mL); MIC (S. aureus [3]; Staphylococcus aureus): 25 to 50 µM (≈ 13.4 to 26.8 µg/mL)

**Q.** Which results are given for `Cc1ccc2nc(N)n(CCCN(C)CCCn3c(N)nc4ccc(C)cc43)c2c1`?
**A.** IC50 [1, 8]: 6 to 12 µM; MIC (E. coli [2]; Escherichia coli): > 100 µM; MIC (S. aureus [3]; Staphylococcus aureus): > 100 µM

**Q.** With `COC(=O)c1ccc2c(c1)nc(N)n2CCCN(C)CCCn1c(N)nc2cc(C(=O)OC)ccc21` as the compound, how does the IC50 [1, 8] read?
**A.** > 100 µM

**Q.** And the MIC (E. coli [2]; Escherichia coli)?
**A.** > 200 µM

**Q.** And the MIC (S. aureus [3]; Staphylococcus aureus)?
**A.** > 200 µM

**Q.** `CN(CCCn1c(N)nc2cc(C(F)(F)F)ccc21)CCCn1c(N)nc2cc(C(F)(F)F)ccc21` was tested. Which IC50 [1, 8] did it give?
**A.** > 100 µM

**Q.** And the MIC (E. coli [2]; Escherichia coli)?
**A.** 25 to 50 µM (≈ 12.8 to 25.7 µg/mL)

**Q.** And the MIC (S. aureus [3]; Staphylococcus aureus)?
**A.** 50 to 100 µM (≈ 25.7 to 51.3 µg/mL)

**Q.** For `CN(CCCn1c(N)nc2cc(C#N)ccc21)CCCn1c(N)nc2cc(C#N)ccc21`, which IC50 [1, 8] is on record?
**A.** > 200 µM

**Q.** What about the MIC (E. coli [2]; Escherichia coli) of the same compound?
**A.** > 200 µM

**Q.** And the MIC (S. aureus [3]; Staphylococcus aureus)?
**A.** > 200 µM

**Q.** Which results are given for `CN(C)CCCn1c(N)nc2cc(CN)ccc21` [CH2NH2]?
**A.** % Complex (Ag IIa HCV IRES Target): 109%; % Dimer (Ag IIa HCV IRES Target): 80%; Selectivity (Ag IIa HCV IRES Target): 2.3

**Q.** Which “% Complex” value (Ag IIa HCV IRES Target) does the source give for `Cc1ccc2nc(N)n(CCCN(C)C)c2c1` [CH3] here?
**A.** 136%

**Q.** And the “% Dimer” value (Ag IIa HCV IRES Target)?
**A.** 31%

**Q.** And the Selectivity (Ag IIa HCV IRES Target)?
**A.** 6.55

**Q.** What does the source list for `CC(C)(C)OC(=O)N1CCC(c2nc3cc(Cl)c(Cl)cc3n2Cc2ccc(CBr)cc2)CC1` [Compound 4g]?
**A.** MIC (S. aureus [4]): 52 µM (≈ 28.8 µg/mL); MIC (E. coli [5]): > 100 µM; IC50 ([1]; Tables 1 and 2, bacterial transcription/translation, read-out: T/T IC50 MIC): > 100 µM

**Q.** For `CC(=O)N1CCC(c2nc3cc([N+](=O)[O-])ccc3[nH]2)CC1` [Compound 7a], which “binding affinity for 16S RNA A-site, in words” value (from here on “binding affinity”) (E. coli 16S A-site [6]) is on record?
**A.** diminished the binding affinity

**Q.** For `Cc1ccc2[nH]c(C3CCNCC3)nc2c1` [Compound 10b], which “binding affinity” value (E. coli 16S A-site [6]) is on record?
**A.** tolerated

**Q.** With `Clc1ccc2[nH]c(C3CCNCC3)nc2c1` [Compound 10d] as the compound, how does the “binding affinity” value (E. coli 16S A-site [6]) read?
**A.** tolerated

**Q.** `c1cnc2nc(C3CCNCC3)[nH]c2c1` [Compound 10j] was tested. Which “binding affinity” value (E. coli 16S A-site [6]) did it give?
**A.** reduced activities

**Q.** `CN(C)CCCn1c(N)nc2ccccc21` [H] was tested. Which “% Complex” value (Ag IIa HCV IRES Target) did it give?
**A.** 125%

**Q.** What about the “% Dimer” value (Ag IIa HCV IRES Target) of the same compound?
**A.** 35%

**Q.** What about the Selectivity (Ag IIa HCV IRES Target) of the same compound?
**A.** 4.30

**Q.** With `CN(C)CCCOc1ccc2nc(N)n(CCCN(C)C)c2c1` [O(CH2)3N(CH3)2] as the compound, how does the “% Complex” value (Ag IIa HCV IRES Target) read?
**A.** 862%

**Q.** What about the “% Dimer” value (Ag IIa HCV IRES Target) of the same compound?
**A.** 72%

**Q.** And the Selectivity (Ag IIa HCV IRES Target)?
**A.** 96.88

**Q.** `COc1ccc2nc(N)n(CCCN(C)C)c2c1` [OCH3] was tested. Which “% Complex” value (Ag IIa HCV IRES Target) did it give?
**A.** 286%

**Q.** What about the “% Dimer” value (Ag IIa HCV IRES Target) of the same compound?
**A.** 39%

**Q.** What about the Selectivity (Ag IIa HCV IRES Target) of the same compound?
**A.** 10.67

**Q.** Which IC50 [1, 8] does the source give for `CN(CCn1c(N)nc2cc(Cl)c(Cl)cc21)CCn1c(N)nc2cc(Cl)c(Cl)cc21` [X = Cl] here?
**A.** > 100 µM

**Q.** And the MIC (E. coli [2])?
**A.** >100 µM

**Q.** What about the MIC (S. aureus [3]) of the same compound?
**A.** >100 µM

**Q.** Which IC50 [1, 8] does the source give for `CN(CCn1c(N)nc2ccccc21)CCn1c(N)nc2ccccc21` [X = H] here?
**A.** > 100 µM

**Q.** And the MIC (E. coli [2])?
**A.** >100 µM

**Q.** And the MIC (S. aureus [3])?
**A.** >100 µM

**Q.** With `CN(CCCn1c(N)nc2cc(Cl)c(Cl)cc21)CCCn1c(N)nc2cc(Cl)c(Cl)cc21` [X = N—Me] as the compound, how does the IC50 [1, 8] read?
**A.** 25 µM

**Q.** And the “MIC, E. coli” value (E. coli [2])?
**A.** 25 to 50 µM

**Q.** And the “MIC, S. aureus” value (S. aureus [3])?
**A.** 75 to 100 µM

**Q.** Which results are given for `CN(CCCn1c(N)nc2cc(Cl)c(Cl)cc21)CCCn1c(N)nc2cc(Cl)c(Cl)cc21` [drawing 35]?
**A.** IC50 [1, 8]: > 100 µM; MIC (E. coli [2]; Escherichia coli): 12 to 25 µM (≈ 6.18 to 12.9 µg/mL); MIC (S. aureus [3]; Staphylococcus aureus): 12 to 25 µM (≈ 6.18 to 12.9 µg/mL)

**Q.** Which results are given for `CN(C)CCCn1c(N)nc2ccccc21` [drawing 42]?
**A.** IC50 [1, 8]: > 100 µM; MIC (E. coli [2]; Escherichia coli): > 50 µM; MIC (S. aureus [3]; Staphylococcus aureus): > 50 µM

**Q.** With `N[C@H]1C(O)O[C@H](CO)[C@@H](O)[C@@H]1O` (some centres unmarked) [glucosamine] as the compound, how does the “binding site on the target RNA (competition), in words” value (E. coli 16S A-site [7]) read?
**A.** compete for the same binding site
